Data published in publication PMC4769951 (Bioorganic & medicinal chemistry, 2016).

Tests used:
[1] = in vivo, cited from earlier work
[2] = Plasma stability, human plasma; type: in vitro ADME; conditions: female, pooled plasma
[3] = Plasma stability, rat plasma; type: in vitro ADME; conditions: female, Sprague-Dawley, pooled plasma
[4] = Plasma stability, mouse plasma; type: in vitro ADME; conditions: female, CD-1, mouse, pooled plasma
Caco-2 cells = conditions: cited from earlier work
[5] = Aqueous stability in simulated gastric fluid; type: physicochemical; conditions: 37 °C

## Nc1ncnc2c1ncn2[C@@H]1O[C@H](CNS(=O)(=O)NC(=O)c2ccccc2O)[C@@H](O)[C@H]1F [Compound 2]
[1]; po
  Oral exposure relative to 1: 3 fold
[1]
  Clearance relative to 1: 3 fold
[2]
  remaining at 6 h, 200 µM: 100%
[3]
  remaining at 6 h, 200 µM: 100%
[4]
  remaining at 6 h, 200 µM: 100%
Caco-2 cells
  Caco-2 permeability relative to 1: 3.5 fold
  Efflux ratio: 0.3
  Papp AP-BL: 4.2 ×10⁻⁶ cm/s
  Papp BL-AP: 1.3 ×10⁻⁶ cm/s

## CCCCCCCCCCCC(=O)O[C@H]1[C@@H](F)[C@H](n2cnc3c(N)ncnc32)O[C@@H]1CNS(=O)(=O)NC(=O)c1ccccc1O.CCN(CC)CC [Compound 8, 9-[2,5-Dideoxy-3-O-(dodecanoyl)-2-fluoro-5-{N-(N-2-hydroxybenzoyl)sulfamoyl}amino-β-D-ribofuranosyl]adenine Triethylammonium Salt]
[5]; pH 1.2, 2 h
  Chemical hydrolysis to release the parent drug 2: not observed

## CC(=O)O[C@H]1[C@@H](F)[C@H](n2cnc3c(N)ncnc32)O[C@@H]1CNS(=O)(=O)NC(=O)c1ccccc1O.CCN(CC)CC [Compound 3, 9-[3-O-(Acetyl)-2,5-dideoxy-2-fluoro-5-{N-(N-2-hydroxybenzoyl)sulfamoyl}amino-β-D-ribofuranosyl]adenine Triethylammonium Salt]
[5]; pH 7.4, 2 h
  % hydrolyzed to parent drug 2: 8%
